Test results as given in patent US8088822B2, “Use of fenretinide or bioactive derivatives thereof and pharmaceutical compositions comprising the same” (priority 2008, dated 2012).
Where two headings read alike, the source gives them in different places.

Key:
HL60 cells [1] = assay: Annexin V apoptosis assay in proliferating and serum-deprived quiescent HL60 cells; format: cell-based; conditions: 24 h
Protocol: (§1) HL60 cells were cultured in RPMI 1640 supplemented (i) with or (ii) without 10% fetal bovine serum to obtain proliferating and quiescent leukemia cells respectively. Serum-deprived quiescent leukemic cells and proliferating leukemic cells were then cultured in media containing 0.5% FBS, and treated with 1 μM and 2.5 μM fenretinide, and also with chemotherapeutics as controls, 20 μM idarubicin (IDA) and 5 μM cytarabine (Ara-C).
(§2) 2×10^5 cultured cells were used for evaluating apoptosis using an ApoAlert Annexin V-FITC Apoptosis Kit (BD Biosciences). Cells were washed once by PBS, resuspended in 200 μl Annexin-V binding buffer, and then stained with Annexin V-FITC 5 μl, PI 10 μl for 15 min at room temperature in the dark. Cells were subsequently analyzed by flow cytometry.
(§3) To examine the effects of fenretinide on proliferating and quiescent leukemia cells, HL60 cells were chosen as serum deprived quiescent leukemic cell model obtained when incubated in RPMI 1640 without serum for 48 h, with G0/G1 phase cells (being in quiescent state) accounting up to 59.9%. Serum-deprived quiescent leukemic cells and proliferating leukemic cells were then cultured in media containing 0.5% FBS, and treated with 1 μM and 2.5 μM fenretinide, and also with chemotherapeutics as controls, 20 μM idarubicin (IDA) and 5 μM cytarabine (Ara-C). […] Fenretinide induces intracellular production of ROS, lowers mitochondrial transmembrane potential (MTP), and eventually leads to apoptosis in a variety of malignancies. We measured MTP induced by fenretinide in proliferating and quiescent HL60 cells, as examined through rhodamine 123 and propidium iodide staining and followed by flow cytometry analysis. […] We further measured intracellular ROS abundance induced by fenretinide. […] After incubation with 1 μM and 2.5 μM fenretinide for 3 h, the ROS level of proliferating cells increased by 1.77 and 2.6 fold, respectively.

HL60 cells [2] = assay: Intracellular ROS accumulation, DCFH-DA staining, HL60 cells; format: cell-based; conditions: 3 h; for increase of ROS level: proliferating HL60 cells; for fold change of ROS: quiescent HL60 cells
Protocol: as §1
(§4) The intracellular generation of reactive oxygen species (ROS) was measured using of the oxidation-sensitive fluorescent dye 2,7-dichlorofluorescin diacetate (DCFH-DA) (Molecular Probes). After 3 h exposure of fenretinide, 2×10^5 cells were harvested and washed once with PBS, then loaded with 1 ml PBS containing 10 μM of DCFH-DA. The cells were then incubated at 37° C. for 30 min and the fluorescence intensity was measured at 530 nm.
as §3

CML CD34+ cells = assay: Colony forming assay in primary CML CD34+ cells; format: cell-based, human; conditions: 14 days; for inhibition at 2 µM / inhibition at 4 µM: Homo sapiens, 336 h; for inhibition at 2 µM: 2 μM fenretinide; for inhibition at 4 µM: 4 μM fenretinide
Text: Fresh bone marrow (BM) cells were obtained from 38 patients with CML and 5 non-leukemic donors, 25 AML, 17 ALL, and 8 normal specimens with informed consent according to the Declaration of Helsinki. Approval was obtained from Institutional Review Board at the School of Medicine in Shanghai Jiao Tong University. BM mononuclear cells were isolated by Ficoll density gradient centrifugation (Shanghai Second Reagent Factory, Shanghai, China). CD34^+ Cell were selected using EasySep® Human CD34 Positive Selection kit (Stem Cell Technologies, Vancouver, BC, Canada) according to the manufacturer's instructions. […] The CD34^+ cells were cultured in a serum-free medium (StemPro 34; Gibco BRL, Gaithersburg, Md.) supplemented with growth factors (PeproTech, London, United Kingdom) (20). The growth factors consisted of GM-CSF (200 pg/mL), G-CSF (1 ng/mL); SCF (200 pg/mL); LIF (50 pg/mL), MIP-1α (200 pg/mL) and IL-6 (1 ng/mL).
A quantity of 1000 CD34^+ cells were plated in semisolid methylcellulose-based media (Methocult H4434: Stem Cell Technologies, Vancouver, BC, Canada). After incubation at 37° C. in a fully humidified atmosphere of 5% CO2 for 14 days, granulocyte macrophage-colony-forming units (CFU-GM), erythroid burst-forming units (BFU-E), granulocyte, erythrocyte and monocyte, megakaryocyte-colony-forming units (CUF-GEMM) were counted. Only clusters with >50 cells were counted as a colony.
We further performed study to examine the effects of fenretinide on colony forming in primary CML cells derived from 38 bone marrow specimens of CML patients (TABLE 1). First, CML CD34^+ Cells were isolated using EasySep® Human CD34 Positive Selection kit (Stem Cell Technologies, Vancouver, BC, Canada). Upon treated with 2 μM and 4 μM fenretinide, colony forming assays were performed respectively on granulocyte macrophage-colony-forming units (CFU-GM), erythroid burst-forming units (BFU-E), granulocyte, erythrocyte and monocyte, megakaryocyte-colony-forming units (CFU-GEMM).

[3] = system: K562, HL60 and NB4 leukemia cell lines; assay: Apoptosis versus intracellular ROS level in leukemia cell lines; format: cell-based; conditions: series of concentrations
Protocol: as §2, §4
Fenretinide induces ROS-dependent apoptosis is the common feature in a variety of tumors (Sun et al., 1999). Here, we extensively explored the relationship between intracellular ROS levels and apoptosis outcomes induced by fenretinide in a panel of leukemia cell lines, including K562, HL60 and NB4. The intracellular ROS levels in leukemic cells were evaluated by DCFH-DA staining, and apoptosis of leukemic cells induced by fenretinide treatment with a series of concentrations was examined through annexin-V FITC and 7AAD double staining.

MKN45 = assay: Apoptosis in gastric tumor cell line MKN45 (Rh123/PI, FACS); format: cell-based; conditions: MKN45, 48 hours; 4 μM fenretinide, 5 μM Tet, alone or co-treatment
Protocol: Loss of MTP was evaluated through rhodamine 123 (Rh123) and propidium iodide (PI) staining. 2×10^5 cells were washed by PBS and incubated with 1 μg/ml Rh123 at 37° C. for 30 min. After washed by PBS, 10 μl PI was added to cells for 15 min at room temperature in the dark. Fluorescence emission at 530 nm (representing R123 retention as a function of MTP) was measured with flow cytometry.
Fenretinide induces intracellular ROS and ER stress to activate series of molecular events including apoptotic pathway and such anti-apoptotic pathways as NF-κB cascade. NF-κB can mediate the progression of inflammation-related cancer. […] Unlike fenretinide, Tet is the well-known anti-cancer and anti-inflammation drugs via inhibiting the activity of NF-κB. For example, Tet, as the main effective component of Stephenia tetrandra S Moore, has bioactivities in reversing MDR (multidrug resistance), blocking calcium ion channel and so on. […] FIGS. 19A and 19B show synergistic induction of apoptosis by fenretinide and Tet, as evaluated by Rh123/PI double stain using FACS. […] Through annexin-V/PI double staining, synergistic apoptosis profiles of fenretinide/tetrandrine co-treated MKN45 and SGC7901 cells were also observed (see FIGS. 19C and 19D).

[4] = read-out: inhibition of BFU-E number
[5] = CFU-GM, read-out: inhibition of CFU-GM number

CC1=C(/C=C/C(C)=C/C=C/C(C)=C/C(=O)Nc2ccc(O)cc2)C(C)(C)CCC1 [fenretinide, N-(4-hydroxyphenyl)retinamide]
percentage of apoptotic cells (HL60 cells [1]; proliferating HL60 cells, 1 μM fenretinide): 11.8% | percentage of apoptotic cells (HL60 cells [1]; proliferating HL60 cells, 2.5 μM fenretinide): 36.8% | percentage of apoptotic cells (HL60 cells [1]; serum-deprived quiescent HL60 cells, 1 μM fenretinide): 39.5% | percentage of apoptotic cells (HL60 cells [1]; serum-deprived quiescent HL60 cells, 2.5 μM fenretinide): 52.7% | increase of ROS level (HL60 cells [2]; 1 μM fenretinide): 1.77 fold | increase of ROS level (HL60 cells [2]; 2.5 μM fenretinide): 2.6 fold | fold change of ROS (HL60 cells [2]; 1 μM fenretinide): 3.83 fold | fold change of ROS (HL60 cells [2]; 2.5 μM fenretinide): 4.3 fold | inhibition at 2 µM (CML CD34+ cells; [4]): 24% | inhibition at 4 µM (CML CD34+ cells; [4]): 66% | inhibition at 2 µM (CML CD34+ cells; [5]): 19% | inhibition at 4 µM (CML CD34+ cells; [5]): 36 ± 9% | GFU-GEMM formed by the more primitive progenitor cells (CML CD34+ cells; fenretinide 2 μM and 4 μM): could not be detected | susceptibility to fenretinide-induced apoptosis versus level of intracellular ROS [3]: positively correlated | apoptosis (MKN45): 6.2%
